We go through 2 substances from US10765741B2, “Methods for treating VEGF-expressing cancer using preformed nanoparticle complexes comprising albumin-bound paclitaxel and bevacizumab” (Mayo Foundation for Medical Education and Research, priority 2011, dated 2020).

Assay [1] is described as follows: Complex formation of labeled antibodies with labeled Abraxane nanoparticles, flow cytometry. Format: binding. To be noted: fluorescently labeled antibody and nanoparticles.
Method: Three therapeutic monoclonal antibodies (bevacizumab, trastuzamab, and rituxan) were fluorescently labeled and incubated with fluorescently labeled Abraxane® nanoparticles. The particles were spun down, washed, and visualized by flow cytometry.
Assay [2] can be described thus: Bevacizumab incubated with free paclitaxel, Western blot with anti-paclitaxel antibody. Format: binding. To be noted: 4 mg bevacizumab, paclitaxel 0.1-2 mg, 30 minutes room temperature. As for the experimental part: The following was performed to determine if bevacizumab binds free paclitaxel. 4 mg of bevacizumab was incubated with paclitaxel (0.1, 0.5, 1, or 2 mg) for 30 minutes at room temperature.
For orientation: In western blotting, separated proteins are transferred to a membrane and probed.

As for “rituxan: Therapeutic monoclonal antibody”, in assay [1], the “complex formation with Abraxane nanoparticles” value is on record as “spontaneously formed complexes”.

For “bevacizumab: Humanized monoclonal antibody that binds to vascular endothelial growth factor A”, the “complex formation with Abraxane nanoparticles” value in assay [1] is “spontaneously formed complexes”. Also, in assay [2], the “binding of free paclitaxel” value was “did not bind”.
